The source of these data is ChEMBL document CHEMBL4765442, “Anti-Giardia Drug Discovery: Current Status and Gut Feelings” (J Med Chem, 2020).

The structures appear in SMILES notation.

Holding throughout (type): functional, organism-based
For assay [1], the system named is Giardia intestinalis. Put plainly: Antigiardial activity against Giardia lamblia 713 incubated for 48 hrs. The following applies: Giardia duodenalis, 713, 48 h.
In assay [2] the test system is Giardia intestinalis. In words: Antigiardial activity against Giardia lamblia WBC6 incubated for 48 hrs. The conditions noted are these: Giardia duodenalis, WBC6, 48 h.
Assay [3] concerns Giardia intestinalis. In words: Antigiardial activity against metronidazole-resistant Giardia lamblia 713-M3 incubated for 48 hrs. The conditions noted are these: Giardia duodenalis, 713-M3, 48 h.

The EC50 is the midpoint of the concentration-response curve. Lower therefore signals an effect from little substance.

As for `CCOc1ccc2cc(-c3nc(C(C)(C)C)n4ccnc(N)c34)ccc2c1`, the values for the EC50 in assay [1], in assay [2] and in assay [3] were 1200 nM, 600 nM and 600 nM, respectively.
